# In patent EP0173664A2, “Biologically active benzimidazole compounds and process for their preparation” (priority 1984, dated 1986):
# System: isolated rabbit gastric glands
# Test: Inhibiting effect in vitro on acid secretion in isolated rabbit gastric glands (14C-aminopyrine accumulation, histamine-stimulated)
# Type: cell-based
# Details: Oryctolagus cuniculus, 1 h; negative logarithm of concentration (in M) giving 50% inhibition of aminopyrine accumulation; glands incubated 60 min with 5x10^-5M histamine; read-out: Biological effect in glands pIC50 (converted)
# Experimental: Isolated rabbit gastric glands were prepared as described by Berglindh et al., Acta physiol. scand. 1976. 96. 150-159. This method involves vascular perfusion of the rabbit stomach via the gastric arteries, scraping and scissor mincing of the separated gastric mucosa and collagenase (0.1%, Type I, Sigma Chemicals, St. Louis, MO. USA) digestion at 37°C for 60-90 min. The glands are then harvested and filtered through nylon cloth to remove coarse fragments. The glands are thereafter incubated at 37°C in a medium containing NaCl 132.4 mM, KC1 5.4 mM, […], NaH2P04 1.0 mM, MgS04 1.2 mM, CaCl2 1.0 mM, glucose 10 mM, and 1 mg/ml rabbit albumine, pH 7.4.
# The acid secretion in the isolated gland preparation was recorded by measuring the uptake of ^14C-labelled aminopyrine into the glands as described by Berglindh et al., Acta physiol. scand. 1976. 97. 401-414. Accumulation of aminopyrine in the glands indicates gastric acid secretion within the glands. The standard medium contained 10^-6M ^14C-aminopyrine (Amersham, Great Britain). After the incubation period, the glands were centrifuged, the supernatant was removed and the glands dried, weighed and dissolved in Soluene -350 (Packard, IU. USA). Samples of the supernatant and glands were separately counted in a scintillation counter. The accumulation of ^14 C-labelled aminopyrine in the glands was calculated as detailed by Berglindh et al., Acta physiol. scand. 1976. 97. 403.
# Glands were incubated for 60 min. in the presence of 5x10^-5M histamine and the test compound to be studied. The free base of the test compound was dissolved in methanol. The final concentration of methanol was 1% in the incubation medium, having no influence on the aminopyrine accumulation ratio. For each test compound a complete dose-response curve was generated by testing doses in duplicate in the concentration range 10^-7M to 10-^4M.
row,Compound,IC50 [nM]
1,COc1ccc2[nH]c([S+]([O-])Cc3cc(Oc4ccc(C)cc4)c(C)cn3)nc2c1 (centres unmarked) [Example 18],631
2,COc1ccc2[nH]c([S+]([O-])Cc3cc(Oc4ccccc4)ccn3)nc2c1 (centres unmarked) [Example 10],1260
3,"CCc1cnc(C[S+]([O-])c2nc3cc(C)c(C)cc3[nH]2)cc1Oc1ccccc1 (centres unmarked) [Example 1, 5,6-dimethyl-2-[[(4-phenoxy-5--ethyl-2-pyridinyl)methyl]sulfinyl]-1H-benzimidazole]",1000
4,Cc1cc2nc([S+]([O-])Cc3cc(-c4ccccc4)ccn3)[nH]c2cc1C (centres unmarked) [Example 24],7940
5,COc1ccc2[nH]c([S+]([O-])Cc3cc(OCc4ccccc4)c(C)cn3)nc2c1 (centres unmarked) [Example 22],79.4
6,COc1ccc2[nH]c([S+]([O-])Cc3nccc(Oc4ccc(C)cc4)c3C)nc2c1 (centres unmarked) [Example 16],631

# The next lines start with the values.
row,IC50 [nM],Compound
1,316,Cc1cc2nc([S+]([O-])Cc3cc(Oc4ccccc4)ccn3)[nH]c2cc1C (centres unmarked) [Example 12]
2,2510,COc1ccc2[nH]c([S+]([O-])Cc3cc(-c4ccccc4)ccn3)nc2c1 (centres unmarked) [Example 8]
3,794,"COc1ccc2[nH]c([S+]([O-])Cc3cc(Oc4ccc(C)cc4)ccn3)nc2c1 (centres unmarked) [Example 3, 5-methoxy-2-[[[4-(4-methylphenoxy)--2-pyridinyl]methyl]sulfinyl]-1H-benzimidazole]"
4,794,CCc1cnc(C[S+]([O-])c2nc3cc(OC)ccc3[nH]2)cc1OCc1ccccc1 (centres unmarked) [Example 26]
5,316,CCc1cnc(C[S+]([O-])c2nc3cc(OC)ccc3[nH]2)cc1Oc1ccccc1 (centres unmarked) [Example 6]
